{
  "source": "patent US20240327364A1",
  "about": "“THERAPEUTIC TARGETING OF GPR68 TO INDUCE FERROPTOSIS” (University Of Maryland, Baltimore, priority 2023, published 2024)",
  "key": {"U87": {"system": "U87", "test": "Liperfluo lipid peroxidation", "type": "cell-based, human", "conditions": "OGM2 and 2Gy ionizing radiation", "description": "(§1) Cells were plated on a 100 mm cell culture dish (CELLTREAT Scientific Products) in 10 mls of DMEM with high glucose, GlutaMAX, HEPES, Penicillin-Streptomycin (ThermoFisher™) and 10% FBS. Cells were incubated overnight at 37° C. in 5% CO2. Media were then replaced with […] fresh media with DMSO, OGM2, or Erastin (APExBIO Technology™) and the cells incubated for 3 days. On the third day, 3 mL fresh media with 2.5 μM Liperfluo™ (Dojindo Molecular Technologies™, Inc.) resuspended in DMSO was added and cells were incubated at 37° C. in 5% CO2 for 1 hour. Cells were subsequently trypsinized for 5 minutes, pelleted by centrifugation, and resuspended in cell sorting media (1% BSA and 1 mM EDTA in PBS pH 7.4). Ten thousand events were recorded on a BD LSR II and the data processed using the FlowJo™ software.\n(§2) Where appropriate, ANOVA, or student's T-test were conducted in PRISM. Chi squared T(X) was used for Liperfluo analysis. A value T(X)>4 implies that the two distributions are different with a p<0.01 (99% confidence). For drug interaction and therapeutic interaction, the coefficient of drug interaction (CDI) was calculated as follows: CDI=AB/(A×B). According to the impact of each group, AB is the value of combined treatment and A or B is the value of the single agent group to control group."}, "U138": {"system": "U138", "test": "Liperfluo lipid peroxidation", "type": "cell-based, human", "description": "as §1, §2"}, "GPR68": {"target": "GPR68 (Homo sapiens, UniProt Q15743)", "sequence (Q15743 whole entry)": "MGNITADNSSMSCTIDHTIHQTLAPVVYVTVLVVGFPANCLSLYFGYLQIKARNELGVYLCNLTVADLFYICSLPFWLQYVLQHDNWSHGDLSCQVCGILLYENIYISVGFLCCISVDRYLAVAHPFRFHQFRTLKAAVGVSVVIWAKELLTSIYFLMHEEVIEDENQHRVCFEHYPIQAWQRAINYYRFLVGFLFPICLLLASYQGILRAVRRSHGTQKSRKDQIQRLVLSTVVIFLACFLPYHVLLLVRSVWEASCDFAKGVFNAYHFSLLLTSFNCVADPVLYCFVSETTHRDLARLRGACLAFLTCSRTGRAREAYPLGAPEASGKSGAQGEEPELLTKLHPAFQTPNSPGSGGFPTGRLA", "test": "GPCR Profiler", "type": "cell-based", "parameters": "host or cells: Chem-1 cells (Chem1-OGR1)"}, "ERK3": {"target": "T1, ERK3 (Homo sapiens, UniProt Q16659)", "T1 construct": "purchased DiscoveRx (Fremont, CA)", "T1 sequence (Q16659 whole entry)": "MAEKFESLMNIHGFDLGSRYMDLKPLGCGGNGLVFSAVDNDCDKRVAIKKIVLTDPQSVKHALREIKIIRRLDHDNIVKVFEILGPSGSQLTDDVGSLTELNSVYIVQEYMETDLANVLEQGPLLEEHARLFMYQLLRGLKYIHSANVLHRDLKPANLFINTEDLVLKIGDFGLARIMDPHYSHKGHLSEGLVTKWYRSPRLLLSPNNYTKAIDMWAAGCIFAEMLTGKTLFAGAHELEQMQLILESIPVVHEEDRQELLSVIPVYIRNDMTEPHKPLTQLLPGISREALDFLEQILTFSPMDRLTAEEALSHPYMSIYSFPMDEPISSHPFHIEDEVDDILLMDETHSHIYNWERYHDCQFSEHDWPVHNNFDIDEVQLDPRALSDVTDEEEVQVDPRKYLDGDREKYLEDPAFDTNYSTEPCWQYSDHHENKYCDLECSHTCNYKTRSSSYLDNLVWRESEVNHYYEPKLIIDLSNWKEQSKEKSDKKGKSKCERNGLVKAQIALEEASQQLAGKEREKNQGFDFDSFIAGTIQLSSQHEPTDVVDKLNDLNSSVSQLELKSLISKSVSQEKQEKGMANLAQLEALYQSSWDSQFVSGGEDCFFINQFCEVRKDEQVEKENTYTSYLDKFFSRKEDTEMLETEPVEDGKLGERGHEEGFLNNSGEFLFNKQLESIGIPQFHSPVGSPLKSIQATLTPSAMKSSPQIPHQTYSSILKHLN", "test": "KinomeScan", "type": "binding", "conditions": "read-out: % Control"}, "TRKA": {"target": "T2, TRKA (Homo sapiens, UniProt P04629)", "T2 construct": "purchased DiscoveRx (Fremont, CA)", "test": "KinomeScan", "type": "binding", "conditions": "read-out: % Control"}, "PIPSK1A": {"target": "T3, PIPSK1A (Homo sapiens, UniProt Q99755)", "T3 construct": "purchased DiscoveRx (Fremont, CA)", "T3 sequence (Q99755 whole entry)": "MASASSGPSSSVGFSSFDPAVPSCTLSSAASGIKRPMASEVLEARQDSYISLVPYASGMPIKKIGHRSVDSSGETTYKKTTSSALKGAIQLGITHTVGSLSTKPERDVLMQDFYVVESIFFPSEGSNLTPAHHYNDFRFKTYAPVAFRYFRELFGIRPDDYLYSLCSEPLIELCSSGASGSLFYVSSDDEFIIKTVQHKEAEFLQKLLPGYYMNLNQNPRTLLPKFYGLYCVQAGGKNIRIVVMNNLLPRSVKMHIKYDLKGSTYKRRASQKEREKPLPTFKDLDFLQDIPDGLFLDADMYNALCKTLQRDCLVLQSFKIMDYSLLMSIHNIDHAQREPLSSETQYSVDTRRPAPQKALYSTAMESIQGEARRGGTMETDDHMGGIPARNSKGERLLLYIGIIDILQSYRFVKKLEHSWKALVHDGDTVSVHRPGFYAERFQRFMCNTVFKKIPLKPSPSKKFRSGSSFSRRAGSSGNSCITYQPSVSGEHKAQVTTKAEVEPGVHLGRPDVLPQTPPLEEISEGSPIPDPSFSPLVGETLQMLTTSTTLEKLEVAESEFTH", "test": "KinomeScan", "type": "binding", "conditions": "read-out: % Control"}, "PIP5K2C": {"target": "T4, PIP5K2C (Homo sapiens, UniProt Q8TBX8)", "T4 construct": "purchased DiscoveRx (Fremont, CA)", "T4 sequence (Q8TBX8 whole entry)": "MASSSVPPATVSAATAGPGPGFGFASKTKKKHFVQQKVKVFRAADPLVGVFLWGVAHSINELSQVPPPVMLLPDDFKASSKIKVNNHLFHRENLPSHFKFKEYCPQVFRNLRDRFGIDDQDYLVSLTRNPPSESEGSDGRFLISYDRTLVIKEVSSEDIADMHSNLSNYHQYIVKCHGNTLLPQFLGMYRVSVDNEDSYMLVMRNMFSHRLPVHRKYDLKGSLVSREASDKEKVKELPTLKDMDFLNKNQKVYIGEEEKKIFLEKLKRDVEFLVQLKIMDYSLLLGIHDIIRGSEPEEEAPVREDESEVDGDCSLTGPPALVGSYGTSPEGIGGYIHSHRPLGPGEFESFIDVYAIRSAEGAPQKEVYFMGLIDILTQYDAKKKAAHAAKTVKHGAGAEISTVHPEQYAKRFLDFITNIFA", "test": "KinomeScan", "type": "binding", "conditions": "read-out: % Control"}, "CXCR5": {"target": "T5, CXCR5 (Homo sapiens, UniProt P32302)", "T5 construct": "host or cells: Chem-1 cells with Gα15", "T5 sequence (P32302 whole entry, species assumed)": "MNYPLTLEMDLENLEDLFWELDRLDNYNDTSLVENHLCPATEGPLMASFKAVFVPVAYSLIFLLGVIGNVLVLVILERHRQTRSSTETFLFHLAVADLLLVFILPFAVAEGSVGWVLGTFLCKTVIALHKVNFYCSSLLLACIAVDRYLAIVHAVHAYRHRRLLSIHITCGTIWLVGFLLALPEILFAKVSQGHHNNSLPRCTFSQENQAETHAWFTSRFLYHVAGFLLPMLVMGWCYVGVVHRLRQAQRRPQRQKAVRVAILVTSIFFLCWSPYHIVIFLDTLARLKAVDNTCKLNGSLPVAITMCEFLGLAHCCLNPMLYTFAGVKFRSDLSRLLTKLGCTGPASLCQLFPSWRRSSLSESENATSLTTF", "test": "GPCR Profiler", "type": "cell-based"}, "PAF": {"target": "T6, PAF (Homo sapiens, UniProt P25105)", "T6 construct": "host or cells: Chem-1 cells with Gα15", "T6 sequence (P25105 whole entry)": "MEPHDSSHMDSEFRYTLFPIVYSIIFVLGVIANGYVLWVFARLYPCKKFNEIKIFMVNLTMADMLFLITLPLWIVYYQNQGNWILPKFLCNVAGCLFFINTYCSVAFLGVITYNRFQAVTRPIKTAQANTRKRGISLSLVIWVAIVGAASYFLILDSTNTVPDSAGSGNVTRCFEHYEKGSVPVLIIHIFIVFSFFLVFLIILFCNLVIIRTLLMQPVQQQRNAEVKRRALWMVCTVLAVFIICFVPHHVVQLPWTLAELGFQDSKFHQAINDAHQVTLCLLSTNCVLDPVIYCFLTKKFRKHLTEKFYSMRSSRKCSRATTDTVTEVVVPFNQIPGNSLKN", "test": "GPCR Profiler", "type": "cell-based"}, "EPHA6": {"target": "T7, EPHA6 (Homo sapiens, UniProt Q9UF33)", "T7 construct": "purchased DiscoveRx (Fremont, CA)", "test": "KinomeScan", "type": "binding", "conditions": "read-out: % Control"}, "MTOR": {"target": "T8, MTOR (Homo sapiens, UniProt P42345)", "T8 construct": "purchased DiscoveRx", "test": "KinomeScan", "type": "binding", "conditions": "read-out: % Control"}, "MLK3": {"target": "T9, MLK3 (Homo sapiens, UniProt Q16584)", "T9 construct": "purchased DiscoveRx", "test": "KinomeScan", "type": "binding", "conditions": "read-out: % Control"}, "STK35": {"target": "T10, STK35 (Homo sapiens, UniProt Q8TDR2)", "T10 construct": "purchased DiscoveRx (Fremont, CA)", "T10 sequence (Q8TDR2 whole entry)": "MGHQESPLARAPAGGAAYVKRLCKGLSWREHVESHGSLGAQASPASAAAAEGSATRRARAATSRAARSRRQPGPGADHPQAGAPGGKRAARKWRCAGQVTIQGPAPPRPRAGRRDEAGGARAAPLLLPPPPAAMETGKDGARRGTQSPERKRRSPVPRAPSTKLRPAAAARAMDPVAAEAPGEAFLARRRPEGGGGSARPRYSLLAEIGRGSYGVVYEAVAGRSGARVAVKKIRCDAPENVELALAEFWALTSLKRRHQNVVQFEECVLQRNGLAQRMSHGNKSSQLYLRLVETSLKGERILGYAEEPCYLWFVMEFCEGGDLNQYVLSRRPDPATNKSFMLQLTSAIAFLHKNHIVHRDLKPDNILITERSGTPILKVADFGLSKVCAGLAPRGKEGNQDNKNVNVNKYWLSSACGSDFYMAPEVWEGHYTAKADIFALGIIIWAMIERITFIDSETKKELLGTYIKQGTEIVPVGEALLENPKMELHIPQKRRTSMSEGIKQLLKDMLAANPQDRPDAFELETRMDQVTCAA", "test": "KinomeScan", "type": "binding", "conditions": "read-out: % Control"}, "P2Y4": {"target": "T11, P2Y4 (Homo sapiens, UniProt P51582)", "T11 construct": "host or cells: Chem-1 cells with Gα15", "T11 sequence (P51582 whole entry, species assumed)": "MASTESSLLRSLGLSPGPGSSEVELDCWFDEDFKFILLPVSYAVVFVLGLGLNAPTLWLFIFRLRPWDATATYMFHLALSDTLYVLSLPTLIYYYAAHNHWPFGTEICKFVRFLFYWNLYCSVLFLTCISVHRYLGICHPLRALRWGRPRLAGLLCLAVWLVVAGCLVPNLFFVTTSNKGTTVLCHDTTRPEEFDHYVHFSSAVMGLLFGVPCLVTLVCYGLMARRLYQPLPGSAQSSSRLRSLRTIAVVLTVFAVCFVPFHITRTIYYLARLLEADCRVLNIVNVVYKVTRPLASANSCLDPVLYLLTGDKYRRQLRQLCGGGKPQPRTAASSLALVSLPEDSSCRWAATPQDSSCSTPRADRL", "test": "GPCR Profiler", "type": "cell-based"}, "CASK": {"target": "T12, CASK (Homo sapiens, UniProt O14936)", "T12 construct": "purchased DiscoveRx (KinomeScan service)", "test": "KinomeScan", "type": "binding", "conditions": "read-out: % Control"}, "SIK": {"target": "T13, SIK (Homo sapiens, UniProt P57059)", "T13 construct": "purchased DiscoveRx (Fremont, CA)", "test": "KinomeScan", "type": "binding", "conditions": "read-out: % Control"}, "EP4": {"target": "T14, EP4 (Homo sapiens, UniProt P35408)", "T14 construct": "host or cells: Chem-1 cells expressing Gα15", "T14 sequence (P35408 whole entry)": "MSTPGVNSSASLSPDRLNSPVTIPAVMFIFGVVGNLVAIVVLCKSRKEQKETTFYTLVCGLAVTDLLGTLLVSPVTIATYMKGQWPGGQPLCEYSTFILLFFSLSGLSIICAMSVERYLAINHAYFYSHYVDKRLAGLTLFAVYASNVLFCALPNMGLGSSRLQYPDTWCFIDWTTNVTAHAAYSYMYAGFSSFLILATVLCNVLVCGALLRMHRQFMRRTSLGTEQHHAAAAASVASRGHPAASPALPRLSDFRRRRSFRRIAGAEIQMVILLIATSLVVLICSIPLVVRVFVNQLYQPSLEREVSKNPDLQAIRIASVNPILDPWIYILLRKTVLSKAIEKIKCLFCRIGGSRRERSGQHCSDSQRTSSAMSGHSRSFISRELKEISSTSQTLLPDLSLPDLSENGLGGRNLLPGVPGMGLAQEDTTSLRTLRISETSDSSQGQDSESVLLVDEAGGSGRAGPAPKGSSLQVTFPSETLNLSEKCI", "test": "GPCR Profiler", "type": "cell-based"}, "RAF1": {"target": "T15, RAF1 (Homo sapiens, UniProt P04049)", "T15 construct": "purchased DiscoveRx (Fremont, CA)", "T15 sequence (P04049 whole entry)": "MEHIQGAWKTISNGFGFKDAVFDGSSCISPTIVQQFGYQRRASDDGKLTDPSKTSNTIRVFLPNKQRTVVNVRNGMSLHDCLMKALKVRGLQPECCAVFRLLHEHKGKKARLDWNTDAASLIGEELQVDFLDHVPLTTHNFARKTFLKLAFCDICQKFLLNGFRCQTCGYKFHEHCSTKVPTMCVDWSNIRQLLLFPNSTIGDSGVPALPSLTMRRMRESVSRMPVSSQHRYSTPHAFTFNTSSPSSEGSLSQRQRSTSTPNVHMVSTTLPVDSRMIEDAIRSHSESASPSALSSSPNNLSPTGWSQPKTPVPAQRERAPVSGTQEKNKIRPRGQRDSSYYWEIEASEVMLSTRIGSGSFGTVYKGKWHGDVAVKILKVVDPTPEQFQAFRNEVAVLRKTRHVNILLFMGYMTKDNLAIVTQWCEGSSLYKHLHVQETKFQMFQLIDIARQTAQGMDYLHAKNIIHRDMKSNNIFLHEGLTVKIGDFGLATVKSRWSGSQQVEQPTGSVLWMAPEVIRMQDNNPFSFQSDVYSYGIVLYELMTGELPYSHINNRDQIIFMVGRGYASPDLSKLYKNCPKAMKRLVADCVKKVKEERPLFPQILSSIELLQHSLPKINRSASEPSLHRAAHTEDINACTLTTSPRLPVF", "test": "KinomeScan", "type": "binding", "conditions": "read-out: % Control"}},
  "data": [
    {"smiles": "CCc1ccc2c(c1)C1(NN=C(c3ccccc3)S1)C(=O)N2", "note": "(stereo not shown) [OGM2]", "values": [
      {"measurement": "CDI, lipid peroxidation", "setting": "U87", "result": "< 0.06"},
      {"measurement": "Chi-squared T(X), lipid peroxidation", "setting": "U138; 2 μM", "result": 273},
      {"measurement": "Chi-squared T(X), lipid peroxidation", "setting": "U138; 10 μM", "result": 592},
      {"measurement": "CDI, lipid peroxidation", "setting": "U138; OGM2 and 2Gy ionizing radiation", "result": "< 0.006"}
    ]},
    {"smiles": "CCc1ccc2c(c1)C1(NN=C(c3cccc4ccccc34)S1)C(=O)N2", "note": "(stereo not shown) [OGM1, 5-ethyl-5′-naphthalen-1-ylspiro[1H-indole-3,2′-3H-1,3,4-thiadiazole]-2-one]", "values": [
      {"measurement": "Antagonism", "setting": "GPR68; 10 uM", "result": 70.8},
      {"measurement": "Agonism", "setting": "GPR68; 12.5 uM", "result": "−7.6"},
      {"measurement": "remaining binding at 10 µM", "setting": "ERK3", "result": 100, "unit": "%"},
      {"measurement": "remaining binding at 10 µM", "setting": "TRKA", "result": 81, "unit": "%"},
      {"measurement": "remaining binding at 10 µM", "setting": "PIPSK1A", "result": 100, "unit": "%"},
      {"measurement": "remaining binding at 10 µM", "setting": "PIP5K2C", "result": 100, "unit": "%"},
      {"measurement": "Antagonism", "setting": "CXCR5; 10 uM", "result": "−2"},
      {"measurement": "Agonism", "setting": "CXCR5; 12.5 uM", "result": 0.9},
      {"measurement": "Antagonism", "setting": "PAF; 10 uM", "result": 6.6},
      {"measurement": "Agonism", "setting": "PAF; 12.5 uM", "result": 0.4},
      {"measurement": "remaining binding at 10 µM", "setting": "EPHA6", "result": 100, "unit": "%"},
      {"measurement": "remaining binding at 10 µM", "setting": "MTOR", "result": 86, "unit": "%"},
      {"measurement": "remaining binding at 10 µM", "setting": "MLK3", "result": 100, "unit": "%"},
      {"measurement": "remaining binding at 10 µM", "setting": "STK35", "result": 100, "unit": "%"},
      {"measurement": "Antagonism", "setting": "P2Y4; 10 uM", "result": 5.4},
      {"measurement": "Agonism", "setting": "P2Y4; 12.5 uM", "result": "−0.8"},
      {"measurement": "remaining binding at 10 µM", "setting": "CASK", "result": 90, "unit": "%"},
      {"measurement": "remaining binding at 10 µM", "setting": "SIK", "result": 95, "unit": "%"},
      {"measurement": "Antagonism", "setting": "EP4; 10 uM", "result": "−17"},
      {"measurement": "Agonism", "setting": "EP4; 12.5 uM", "result": 0.9},
      {"measurement": "remaining binding at 10 µM", "setting": "RAF1", "result": 100, "unit": "%"}
    ]}
  ]
}
